Laboratory results published in PubChem BioAssay AID588401 (Johns Hopkins Ion Channel Center, 2011).
Activity calls are given as the source filed them.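 Rule for the calls: active = blocks the choline transporter at some tested dose and yields a fitted dose response curve; inconclusive = no clear call, values can overlap the other calls; inactive = no blocking at any dose or no curve.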

These compounds were tested against High affinity choline transporter 1 (Homo sapiens) (UniProt Q9GZV3) (assay: CHT inhibitors, dose response, cell-based, 10-point CRC, membrane potential dye (AID 588401)). Conditions: HEK293-CHT, choline-induced depolarization, at 25 µM (top of the series), cells express LV-AA mutant CHT.
Chain of High affinity choline transporter 1 (Homo sapiens) (Q9GZV3 whole entry, looked up): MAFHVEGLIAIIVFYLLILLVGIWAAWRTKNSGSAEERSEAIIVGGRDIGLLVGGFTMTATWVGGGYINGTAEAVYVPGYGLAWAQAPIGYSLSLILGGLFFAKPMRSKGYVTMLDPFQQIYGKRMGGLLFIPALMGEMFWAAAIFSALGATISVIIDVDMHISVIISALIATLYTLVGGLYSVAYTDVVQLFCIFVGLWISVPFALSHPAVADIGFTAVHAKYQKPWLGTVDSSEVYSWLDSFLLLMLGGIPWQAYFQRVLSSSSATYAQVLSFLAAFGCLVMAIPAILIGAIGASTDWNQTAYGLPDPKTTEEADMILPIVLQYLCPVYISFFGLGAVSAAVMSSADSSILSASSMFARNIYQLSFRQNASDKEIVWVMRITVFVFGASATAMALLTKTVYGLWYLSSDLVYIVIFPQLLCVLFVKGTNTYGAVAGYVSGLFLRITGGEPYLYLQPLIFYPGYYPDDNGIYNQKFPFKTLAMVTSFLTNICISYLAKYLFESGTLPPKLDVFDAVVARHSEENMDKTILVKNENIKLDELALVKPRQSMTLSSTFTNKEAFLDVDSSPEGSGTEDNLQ

| SMILES | inhibition (negative values = inhibition) |
| --- | --- |
| Cc1noc(NS(=O)(=O)c2ccc(NC(=O)COc3ccc(Cl)cc3Cl)cc2)c1C | inactive |
| Cc1nn2c(N3CCN(C)CC3)c3c(nc2c1-c1ccccc1)CCCC3 | inactive |
| CCOC(=O)c1nc(NNC(=O)c2ccc([N+](=O)[O-])cc2)sc1C | inactive |
| CCCCc1cc(O)c(CCCC)c(O)c1 | inactive |
| COc1ccc(-c2csc(Cc3nnc4n3CCCCC4)n2)cc1 | inactive |
| O=C(CSc1nnc(-c2ccco2)n1Cc1ccco1)NCc1cccs1 | inactive |
| Fc1ccc(NC(=S)Nc2ccc(F)c(Cl)c2)cc1Cl | inactive |
| Cc1cccc(C(=O)Nc2cccc(OCC(=O)O)c2)c1 | inactive |
| c1ccc(CCNc2c3c(nc4ncnn24)CCC3)cc1 | inactive |
| CCOC(=O)C1CCN(Cc2c(O)c3ccccc3oc2=O)CC1 | inactive |
| O=S(=O)(c1ccccc1F)N1CCN(CCc2ccccc2)CC1 | inactive |
| Cc1ccc(C(=O)CSc2nnc(-c3ccco3)n2C)cc1 | inactive |
| Cc1ccc(-n2cc(CN3CCN(Cc4nccn4C)CC3)c(-c3ccc(F)cc3)n2)cc1 | inactive |
| CCOC(=O)c1cccc(NC(=O)CSc2nnc(C)n2Cc2ccccc2)c1 | inactive |
| Cc1ccccc1CCNCc1cc2cccc(C)c2[nH]c1=O | inactive |
| Cc1cccc(C(=O)NNC(=S)NC(=O)c2ccccc2)c1 | inactive |

| SMILES | inhibition (negative values = inhibition) |
| --- | --- |
| CCN1CCN(CCNC(=O)c2ccc3nc(-c4cccc(C)c4)c(-c4cccc(C)c4)nc3c2)CC1 | inactive |
| CCCc1ccc(OCc2ccc(C(=O)NCc3cccnc3)o2)c(OC)c1 | inactive |
| Cc1ccc(-c2cccc(CN3CCN(C(C)C)C(CCO)C3)c2)o1 (stereo not drawn) | inactive |
| O=c1c2cc(Br)ccc2nc(-c2ccc(Cl)cc2)n1O | inactive |
| COc1cccc(OC)c1OCCCCCc1c(C)n[nH]c1C | inactive |
| CCOc1ccc(/C=C2\SC(=S)N(NS(=O)(=O)c3ccccc3)C2=O)cc1OC | inactive |
| COc1cccc(/C=C2\SC(=S)N(NS(=O)(=O)c3ccccc3)C2=O)c1OC | inactive |
| CC(Oc1ccccc1Cl)C(=O)Nc1ccc(S(=O)(=O)Nc2nccs2)cc1 (stereo not drawn) | inactive |
| O=[N+]([O-])c1ccc(S(=O)(=O)Nc2nc(-c3ccccc3)cs2)cc1 | inactive |
| Cc1cccc(OCC(O)Cn2c(=N)n(Cc3ccccc3)c3ccccc32)c1 (stereo not drawn) | inactive |
| CCCn1nc2cc(C(=O)NCc3ccc(C)cc3)ccc2c1OCC | inactive |
| CC(C)Nc1nc(Cl)nc(N(C#N)CN2C(=O)c3ccccc3C2=O)n1 | inactive |
| Oc1c(Cl)cc(Cl)cc1C=Nc1ccc2c(c1)OCCO2 | inactive |
| CC(C)(C)S(=O)(=O)/C(C#N)=N/Nc1ccc(Cl)cc1 | inactive |
| CCc1ccc2oc(C(=O)NCC(c3ccc(OC)cc3)N3CCCCC3)c(C)c2c1 (stereo not drawn) | inactive |
| COc1ccc(C(=O)NC(Cc2ccc(OC(=O)c3ccc(OC)cc3)cc2)C(=O)O)cc1 (stereo not drawn) | inactive |

Same assay, conditions: HEK293-CHT, choline-induced depolarization, cells express LV-AA mutant CHT

| SMILES | IC50 [µM] |
| --- | --- |
| Cc1ccc(NC(=O)c2ccc(CN3CC(=O)N4CCCCC4C3=O)cc2)c(C)c1 (stereo not drawn) | 4.47 |
